In this experiment the target is T1, GST-TIE2 (intracellular domains of human TIE2) (Homo sapiens, UniProt Q02763).
T1 construct: made in house
Put plainly: TIE-2 Enzyme Assay (TIE2-E2), LANCE method. The format is biochemical. The note with it: for pIC50: read-out: TIE2 PIC50 TIE2-E2 assay. An excerpt:
TIE-2 Enzyme Assay (TIE2-E2
The TIE-2 enzyme assay uses the LANCE method (Wallac) and GST-TIE2, baculovirus-expressed recombinant constructs of the intracellular domains of human TIE2 (amino acids 762–1104, GenBank Accession # L06139) tagged by GST). The method measures the ability of the purified enzymes to catalyse the transfer of the γ-phosphate from ATP onto tyrosine residues in a biotinylated synthetic peptide, D1–15 (biotin-C6-LEARLVAYEGWVAGKKKamide). This peptide phosphorylation is detected using the following procedure: for enzyme preactivation, GST-TIE2 is incubated for 2 hours at room temperature with 80 μM ATP, 10 mM MgCl2, 0.1 mg/ml BSA, 0.01% Tween 20 and 1 mM DTT in 100 mM HEPES buffer (pH7.4). 5 nM preactivated GST-TIE2 is incubated for 2 hours at room temperature in 96 well plates with 1 uM D1–15 peptide, 80 uM ATP, 10 mM MgCl2, 0.1 mg/ml BSA, 0.01% Tween 20 and titrated test compound (diluted from a 10 mM stock in DMSO, final DMSO concentration is 2.4%) in 100 mM HEPES (pH7.4). The reaction is stopped by the addition of EDTA (final concentration 45 mM). Streptavidin linked-APC (allophycocyanin, PerkinElmer) and europium-labeled anti-phosphotyrosine antibody (PerkinElmer) are then added at the final concentration of 8 nM and 1 nM, respectively. The APC signal is measured using an Wallac Multilabel 1420 counter. (Wallac Berthold Japan). The percent inhibition of activity is calculated relative to blank control wells. The concentration of test compound that inhibits 50% of activity (IC50) is interpolated using nonlinear regression (Levernberg-Marquardt) and the equation, y=Vmax (1−x/(K+x))+Y2, where “K” is equal to the IC50. The IC50 values are converted to pIC50 values, i.e., −log IC50 in Molar concentration.
(In general: Time-resolved FRET reads energy transfer from a long-lived donor to a nearby acceptor.)

pIC50: −log10 of the molar value.

T1 sequence (Q02763 762-1104): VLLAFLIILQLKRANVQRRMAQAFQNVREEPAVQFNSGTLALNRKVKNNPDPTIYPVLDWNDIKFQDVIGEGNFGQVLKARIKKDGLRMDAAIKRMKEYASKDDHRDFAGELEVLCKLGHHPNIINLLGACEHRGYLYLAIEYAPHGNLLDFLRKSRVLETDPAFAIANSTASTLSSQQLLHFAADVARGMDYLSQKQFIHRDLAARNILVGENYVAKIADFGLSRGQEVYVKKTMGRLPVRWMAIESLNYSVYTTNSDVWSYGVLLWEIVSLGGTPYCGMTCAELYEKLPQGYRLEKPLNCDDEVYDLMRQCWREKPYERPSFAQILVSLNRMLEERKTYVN

Regarding `Cc1cc(-c2nn(C)c3nc(NCCN4CCOCC4)ncc23)ccc1NC(=S)Nc1cccc(C(F)(F)F)c1` [Example 58, 1-{2-Methyl-4-[1-methyl-6-(2-morpholin-4-yl-ethylamino)-1H -pyrazolo[3,4-d]-pyrimidin-3-yl]-phenyl}-3-(3-trifluoromethyl-phenyl)-thiourea], the pIC50 is 5.00 to 6.00.
The same measure, in the same setting: to `Cn1nc(-c2ccc(NC(=O)Nc3cc(C(F)(F)F)ccc3F)cc2)c2cnc(NCc3ccccc3)nc21` [Example 62, 1-(2-fluoro-5-trifluoromethyl-phenyl)-3-{4-[1-methyl-6-(benzylamino)-1H-pyrazolo[3,4-d]pyrimidin-3-yl]-phenyl}-urea] belongs 5.00 to 6.00.
With `Cn1nc(-c2ccc(NC(=O)Nc3cc(C(F)(F)F)ccc3F)cc2)c2cnc(Nc3cccc(Cl)c3)nc21` [Example 63], the “TIE2 PIC50 TIE2-E2 assay” value is “++ (++ = PIC50 = 6.00 to less than 7.00)”.
The same measure, in the same setting: under `CN1CCC(N(C)c2ncnc3[nH]nc(-c4ccc(NC(=O)Nc5cc(C(F)(F)F)ccc5F)cc4)c23)CC1` [Example 65, 1-(2-fluoro-5-trifluoromethyl-phenyl)-3-(4-[methyl-(1-methyl-piperidin-4-ylamino]-1H-pyrazolo[3,4-d]pyrimidin-3-yl]-phenyl}-urea] stands “+ (+ = PIC50 = 5.00 to less than 6.00)”.
For the compound `CN1CCC(Nc2ncc3c(-c4ccc(NS(=O)(=O)c5cccc(Cl)c5Cl)cc4)nn(C)c3n2)CC1` [Example 68], the pIC50 was 6.00 to 7.00.
Take `Cn1nc(-c2ccc(NC(=O)Nc3cc(C(F)(F)F)ccc3F)cc2)c2cnc(NCCc3ccccc3)nc21` [Example 81, 1-(2-Fluoro-5-trifluoromethyl-phenyl)-3-{4-[(1-methyl-6-phenethylamino)-1H-pyrazolo[3,4-d]pyrimidin-3-yl]-phenyl} urea]: the pIC50 was 5.00 to 6.00.
Still for that read-out and setting: under `Cn1nc(-c2ccc(NC(=O)Nc3cc(C(F)(F)F)ccc3F)cc2)c2cnc(NCCCN3CCCC3)nc21` [Example 86] stands no less than 7.40; under `CN(C)CCCNc1ncc2c(-c3ccc(NC(=O)Nc4cc(C(F)(F)F)ccc4F)cc3)nn(C)c2n1` [Example 87, 1-(2-Fluoro-5-trifluoromethyl-phenyl)-3-{4-[1-methyl-6-(3-dimethylamino-propylamino)-1H-pyrazolo[3,4-d]pyrimidin-3-yl]-phenyl} urea], no less than 7.40; under `Cn1nc(-c2ccc(NC(=O)Nc3cc(C(F)(F)F)ccc3F)cc2)c2cnc(NCCCN)nc21` [Example 94, 1-(2-Fluoro-5-trifluoromethyl-phenyl)-3-{4-[1-methyl-6-(3-amino-propylamino)-1H-pyrazolo[3,4-d]pyrimidin-3-yl]-phenyl} urea], 7.00 to 7.40.
As to `Cn1nc(-c2ccc(NC(=O)Nc3cc(C(F)(F)F)ccc3F)cc2)c2cnc(NCCCCN)nc21` [Example 95, 1-(2-Fluoro-5-trifluoromethyl-phenyl)-3-{4-[1-methyl-6-(4-amino-butylamino)-1H-pyrazolo[3,4-d]pyrimidin-3-yl]-phenyl} urea], the pIC50 was no less than 7.40.
Same read-out and setting: under `Cn1nc(-c2ccc(NC(=O)Nc3cc(C(F)(F)F)ccc3F)cc2)c2cnc(NCCCCNC(=N)N)nc21` [Example 99, 1-(2-Fluoro-5-trifluoromethyl-phenyl)-3-{4-[1-methyl-6-(4-guanidino-butylamino)-1H-pyrazolo[3,4-d]pyrimidin-3-yl]-phenyl} urea] stands 7.00 to 7.40; under `Cn1nc(-c2ccc(NS(=O)(=O)c3cccc(Cl)c3Cl)cc2)c2cnc(NCCCN3CCOCC3)nc21` [Example 103, 2,3-Dichloro-N-{4-[1-methyl-6-(3-morpholin-4-yl-propylamino)-1H-pyrazolo[3,4-d]pyrimidin-3-yl)-phenyl}-benzenesulfonamide], less than 5.00.
Still for that read-out and setting: under `CC1CCCCN1CCCNc1ncc2c(-c3ccc(NS(=O)(=O)c4cccc(Cl)c4Cl)cc3)nn(C)c2n1` (centres unmarked) [Example 104, 2,3-Dichloro-N-(4-{1-methyl-6-[3-(2-methyl-piperidin-1-yl)-propylamino]-1H-pyrazolo[3,4-d]pyrimidin-3-yl)-phenyl}-benzenesulfonamide] stands less than 5.00; under `Cn1nc(-c2ccc(NS(=O)(=O)c3cccc(Cl)c3Cl)cc2)c2cnc(NCCCN3CCCC3)nc21` [Example 105, 2,3-Dichloro-N-{4-[1-methyl-6-(3-pyrrolidin-1-yl-propylamino)-1H-pyrazolo[3,4-d]pyrimidin-3-yl]-phenyl}-benzenesulfonamide], less than 5.00; under `CN(C)CCCNc1ncc2c(-c3ccc(NS(=O)(=O)c4cccc(Cl)c4Cl)cc3)nn(C)c2n1` [Example 106, 2,3-Dichloro-N-{4-[1-methyl-6-(3-dimethylamino-propylamino)-1H-pyrazolo[3,4-d]pyrimidin-3-yl]-phenyl}-benzenesulfonamide], less than 5.00.
On the same count and under the same terms, to `CN1CCCC1CCNc1ncc2c(-c3ccc(NS(=O)(=O)c4cccc(Cl)c4Cl)cc3)nn(C)c2n1` (centres unmarked) [Example 108, 2,3-Dichloro-N-(4-{1-methyl-6-[2-(1-methyl-pyrrolidin-2-yl)-ethylamino]-1H-pyrazolo[3,4-d]pyrimidin-3-yl]-phenyl}-benzenesulfonamide] belongs less than 5.00; to `Cn1nc(-c2ccc(NS(=O)(=O)c3cccc(Cl)c3Cl)cc2)c2cnc(NCCCCN3CCCC3)nc21` [Example 110, 2,3-Dichloro-N-{4-[1-methyl-6-(4-pyrrolidin 1-yl-butylamino)-1H-pyrazolo[3,4-d]pyrimidin-3-yl]-phenyl}-benzenesulfonamide], less than 5.00.
With `Cn1nc(-c2ccc(NS(=O)(=O)c3cccc(Cl)c3Cl)cc2)c2cnc(NC(CO)CO)nc21` [Example 118, 2,3-Dichloro-N-{4-[1-methyl-6-(2-hydroxy-1-hydroxymethyl-ethylamino)-1H-pyrazolo[3,4-d]pyrimidin-3-yl]-phenyl}-benzenesulfonamide], the pIC50 was less than 5.00.
For `Cn1nc(-c2ccc(NS(=O)(=O)c3cccc(Cl)c3Cl)cc2)c2cnc(NCCCCN)nc21` [Example 120, 2,3-Dichloro-N-{4-[1-methyl-6-(4-amino-butylamino)-1H-pyrazolo[3,4-d]pyrimidin-3-yl]-phenyl}-benzenesulfonamide], the pIC50 was 5.00 to 6.00.
The same measure, in the same setting: under `Cn1nc(-c2ccc(NC(=O)Nc3cc(C(F)(F)F)ccc3F)c(F)c2)c2cnc(NCCCN3CCOCC3)nc21` [Example 127] stands no less than 7.40; under `CC1CCCCN1CCCNc1ncc2c(-c3ccc(NC(=O)Nc4cc(C(F)(F)F)ccc4F)c(F)c3)nn(C)c2n1` (centres unmarked) [Example 128], no less than 7.40; under `CCN(CC)CCCNc1ncc2c(-c3ccc(NC(=O)Nc4cc(C(F)(F)F)ccc4F)c(F)c3)nn(C)c2n1` [Example 129], no less than 7.40.
In the case of `CN1CCCC1CCNc1ncc2c(-c3ccc(NC(=O)Nc4cc(C(F)(F)F)ccc4F)c(F)c3)nn(C)c2n1` (centres unmarked) [Example 130], the pIC50 is no less than 7.40.
Turning to `CN1CCN(CCCNc2ncc3c(-c4ccc(NC(=O)Nc5cc(C(F)(F)F)ccc5F)c(F)c4)nn(C)c3n2)CC1` [Example 131], the pIC50 is no less than 7.40.
Same read-out and setting: under `Cn1nc(-c2ccc(NC(=O)Nc3cc(C(F)(F)F)ccc3F)cc2)c2cnc(NCCc3ccccn3)nc21` [Example 142] stands 6.00 to 7.00; under `Cn1nc(-c2ccc(NC(=O)Nc3cc(C(F)(F)F)ccc3F)cc2)c2cnc(NCc3cccnc3)nc21` [Example 144, 1-(2-Fluoro-5-trifluoromethyl-phenyl)-3-{4-[(1-methyl-6-(pyridin-3-ylmethyl)-amino)-1H-pyrazolo[3,4-d]pyrimidin-3-yl]-phenyl} urea], 6.00 to 7.00.

For the origin of these results see patent US7217710B2, “Substituted pyrazolopyrimidines” (SmithKline Beecham Corporation, priority 2001, dated 2007).
